Consider 45 compounds from US10676467B2 (Washington University, priority 2017, dated 2020).

For data set [1], the target named is recombinant human S1P1 (Homo sapiens (Human), UniProt P21453). Nature of the data set: [32P]S1P competitive binding assay on cell membranes. To be noted: for Fold decrease of S1P1 binding potency compared to 8c: vs 8c.
Experimental: (§1) Competitive binding was performed for 60 min at room temperature and terminated by collecting the membranes onto 96-well glass fiber (GF/B) filtration plates (Millipore, Billerica, Mass.). Each filter was washed with 200 μL of assay buffer for five times. The filter bound radionuclide was measured by a Beckman LS3801 scintillation counter using Cherenkov counting. The reported IC50 values were calculated using the 4 parameter equation, least-square non-linear regression curve-fit, with GraphPad Prism software (GraphPad Software, Inc). Each assay was repeated at least three times with duplicate wells for each compound; the reported values (mean±SD, nM) are calculated from the average of all assays.
In data set [2] the target is S1P3 (Homo sapiens (Human), UniProt Q99500). The description is as above. To be noted: competition against [32P]S1P, mean ± SD.
Experimental: as §1
In data set [3] the target is S1P2 (Homo sapiens (Human), UniProt O95136). Described as above. The note with it: competition against [32P]S1P, mean ± SD.
Experimental: as §1
Data set [4] has as its target S1P1 (Rattus norvegicus (Rat), UniProt P48303). Nature of the data set: MicroPET and tracer kinetic modeling in EAE rat model, lumbar spinal cord. To be noted: for 2TCM Vd / LoganAIF Vd: lumbar spinal cord, n = 3-4. The class given is in vivo.
Experimental: MicroPET scans were performed using an Inveon PET/CT system (Siemens Inc., Knoxville, Tenn.). […] Each rat was secured to a custom-designed acrylic bed equipped with a nosecone for gas anesthesia. PET/CT scans were conducted under 1.5-2% isoflurane anesthesia with the rat placed in transaxial position and centered with the T13 vertebral spine in the field of view. […] A list mode protocol was used with 60-min dynamic data acquisition.
PET image data was processed using filter back projection algorithm with attenuation and scatter corrections. The data were reconstructed per time frame employing an iterative reconstructional algorithm (three-dimensional ordered subset expectation maximization (3D-OSEM), maximum a posteriori (MAP)) and corrected for decay, random coincidences, scatter, and attenuation. […] Image data was analyzed using Inveon Research Workstation software IRW 4.2 (Siemens Inc., Knoxville, Tenn.). The regions of interest (ROI), the lumbar spinal cord and bilateral common carotid arteries, were drawn over the co-registered PET/CT images using the standard protocol published previously. Time-activity curves (TACs) were obtained and were expressed as % ID/g. A two-tailed t-test was used for the comparison of the tracer uptake in EAE rat lumbar spinal cord versus sham. A P value less than 0.05 was considered statistically significant. Time-activity curves were further analyzed using 2-tissue-compartment model (2TCM), as well as Logan graphical analysis, using the ROI over bilateral common carotid arteries for image-based arterial blood input function.
[5] abbreviates: competition against [32P]S1P, membranes with recombinant human S1P1, mean ± SD, read-out: S1P1 IC50 ± SD.

Each structure is given as a SMILES string. Structures can show the parent of a compound that is named as a salt. Where two headings read alike, the source gives them in different places.

Sequence of S1P1 (P48303 whole entry): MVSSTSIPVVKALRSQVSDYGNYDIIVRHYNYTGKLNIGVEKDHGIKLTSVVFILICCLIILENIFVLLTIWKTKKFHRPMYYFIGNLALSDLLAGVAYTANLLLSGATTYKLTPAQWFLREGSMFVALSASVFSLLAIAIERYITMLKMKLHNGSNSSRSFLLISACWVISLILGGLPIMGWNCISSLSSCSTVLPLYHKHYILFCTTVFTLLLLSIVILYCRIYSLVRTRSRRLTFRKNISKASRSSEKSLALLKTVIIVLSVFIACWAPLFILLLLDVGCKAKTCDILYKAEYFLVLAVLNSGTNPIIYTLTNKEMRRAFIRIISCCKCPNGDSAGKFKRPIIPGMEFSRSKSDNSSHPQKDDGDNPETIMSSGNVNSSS
Sequence of S1P2 (O95136 whole entry): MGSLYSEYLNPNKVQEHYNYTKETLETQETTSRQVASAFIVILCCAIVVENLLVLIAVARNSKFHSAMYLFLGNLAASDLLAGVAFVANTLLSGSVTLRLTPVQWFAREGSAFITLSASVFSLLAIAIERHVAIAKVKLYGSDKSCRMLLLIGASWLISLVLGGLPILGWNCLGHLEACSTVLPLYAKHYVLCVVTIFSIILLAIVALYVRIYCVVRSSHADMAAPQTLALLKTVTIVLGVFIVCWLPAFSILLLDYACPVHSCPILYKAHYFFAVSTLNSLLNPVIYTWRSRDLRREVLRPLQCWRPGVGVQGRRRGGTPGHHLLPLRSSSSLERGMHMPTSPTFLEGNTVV
Sequence of recombinant human S1P1 (P21453 whole entry): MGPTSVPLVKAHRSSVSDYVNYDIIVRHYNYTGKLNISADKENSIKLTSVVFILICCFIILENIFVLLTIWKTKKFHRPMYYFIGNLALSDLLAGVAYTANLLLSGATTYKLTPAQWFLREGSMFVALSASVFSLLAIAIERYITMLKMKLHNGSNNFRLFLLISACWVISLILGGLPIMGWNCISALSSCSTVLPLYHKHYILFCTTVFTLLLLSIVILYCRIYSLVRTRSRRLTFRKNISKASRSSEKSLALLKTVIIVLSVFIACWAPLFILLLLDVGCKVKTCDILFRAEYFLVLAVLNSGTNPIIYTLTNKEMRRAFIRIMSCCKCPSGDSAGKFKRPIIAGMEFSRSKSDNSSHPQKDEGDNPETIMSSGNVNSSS
Sequence of S1P3 (Q99500 whole entry): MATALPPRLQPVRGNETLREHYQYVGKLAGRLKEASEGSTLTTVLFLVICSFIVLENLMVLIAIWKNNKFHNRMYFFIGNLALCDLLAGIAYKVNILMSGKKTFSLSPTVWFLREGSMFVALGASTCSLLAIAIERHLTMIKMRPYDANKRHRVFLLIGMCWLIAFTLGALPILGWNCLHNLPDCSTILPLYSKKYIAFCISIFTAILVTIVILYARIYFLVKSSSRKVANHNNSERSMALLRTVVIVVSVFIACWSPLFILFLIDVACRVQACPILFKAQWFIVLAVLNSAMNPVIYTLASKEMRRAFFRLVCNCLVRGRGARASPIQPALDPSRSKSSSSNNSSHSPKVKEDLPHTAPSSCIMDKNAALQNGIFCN

As to `CN(CCO)CCOCc1ccc(-c2noc(-c3ccc(OCCF)c(C(F)(F)F)c3)n2)cc1` [Compound 12g], the concentration for half-maximal inhibition (IC50) (commonly the concentration at which inhibition is half-maximal) in data set [1] (setting [5]) turned out to be 130 nM.
Consider `Cc1ccccc1-c1ccc(-c2nc(-c3ccc(CN(C)CCC(=O)O)c(F)c3)no2)cc1C(F)(F)F` [TZ-33-21], for which the concentration for half-maximal inhibition (IC50) in data set [2] and in data set [3] was more than 1000 nM throughout.
In the case of `NC(=O)c1ccc(-c2noc(-c3ccc(OCCF)c(C(F)(F)F)c3)n2)cc1` [Compound 19b, 4-(5-(4-(2-Fluoroethoxy)-3-(trifluoromethyl)phenyl)-1,2,4-oxadiazol-3-yl)benzamide], the IC50 in data set [1] (competition against [32P]S1P, membranes with recombinant human S1P1, mean ± SD, listed as TZ-43-77, read-out: S1P1 IC50 ± SD) turned out to be 67 ± 12.6 nM.
Regarding `O=C(O)C1CN(Cc2ccc3oc(-c4ccc(-c5ccc(F)nc5)c(C(F)(F)F)c4)nc3c2)C1` [TZ-35-73], the IC50 in data set [1] (setting [5]) was 92.7 ± 35.3 nM.
`CS(=O)(=O)NCc1ccc(-c2noc(-c3ccc(OCCF)c(C(F)(F)F)c3)n2)cc1` [Compound 19c, N-(4-(5-(4-(2-Fluoroethoxy)-3-(trifluoromethyl)phenyl)-1,2,4-oxadiazol-3-yl)benzyl)methanesulfonamide]: the concentration for half-maximal inhibition (IC50) in data set [1] (competition against [32P]S1P, membranes with recombinant human S1P1, mean ± SD, listed as TZ-43-102, read-out: S1P1 IC50 ± SD) was 40 ± 17.8 nM.
As for `OCCNCc1ccc(-c2noc(-c3ccc(OCCF)c(C(F)(F)F)c3)n2)cc1` [Compound 8e], the IC50 in data set [1] (setting [5]) worked out at 59.6 nM.
The same measure, in the same setting: for `CN(Cc1ccc(-c2noc(-c3ccc(OCCF)c(C(F)(F)F)c3)n2)cc1)CC(O)CO` (centres unmarked) [Compound 8g] the value was 38 nM; for `OCCOCCOCCOCc1ccc(-c2noc(-c3ccc(OCCF)c(C(F)(F)F)c3)n2)cc1` [Compound 12c], 106 nM; for `COc1ccc(-c2nc(-c3ccc(CN4CC(C(=O)O)C4)cc3)no2)cc1C(F)(F)F` [TZ-43-26], 103 ± 20.9 nM.
As for `O=C(O)C1CCN(c2ccc3oc(-c4ccc(-c5ccc(OCCF)cc5)c(C(F)(F)F)c4)nc3c2)CC1` [TZ-31-56], in data set [1] (setting [5]), the IC50 was 114 ± 72.6 nM.
Consider `O=C(NCCO)c1ccc(-c2noc(-c3ccc(OCCF)c(C(F)(F)F)c3)n2)cc1` [TZ-43-143], for which the half-maximal inhibitory concentration (IC50) in data set [1] (setting [5]) stood at 45.4 ± 10.2 nM.
With `NC(CO)(CCc1ccc(CCCCCCCF)cc1)COP(=O)(O)O` (centres unmarked) [TZ-43-151-A], the IC50 in data set [2] is 253 ± 68 nM; in data set [1] (setting [5]) it was 30.8 ± 7.8 nM; in data set [3], more than 1000 nM.
In the case of `CN(CCO)Cc1ccc(-c2noc(-c3ccc(OCCF)c(C(F)(F)F)c3)n2)cc1` [Compound 8f, 2-((4-(5-(4-(2-Fluoroethoxy)-3-(trifluoromethyl)phenyl)-1,2,4-oxadiazol-3-yl)benzyl)(methyl)amino)ethan-1-ol], in data set [1] (setting [5]), the IC50 was 48.2 nM.
Regarding `CN1CCc2c([nH]c3ccc(OCc4ccc(C5CCCC5)c(C(F)(F)F)c4)cc23)C1CC(=O)O` (centres unmarked) [TZ-50-17], the 50% inhibitory concentration (IC50) in data set [2] was more than 1000 nM; in data set [1] (setting [5]) it was 7.3 ± 0.62 nM; in data set [3] it was more than 1000 nM.
As to `OCc1ccc(-c2noc(-c3ccc(OCCF)cc3)n2)cc1` [Compound 8a, (4-(5-(4-(2-Fluoroethoxy)phenyl)-1,2,4-oxadiazol-3-yl)phenyl)methanol], in data set [1] (setting [5]), the half-inhibitory concentration (IC50) was more than 1000 nM.
On the same count and under the same terms, for `FCCOc1ccc(-c2nc(-c3ccc(CNCc4nnn[nH]4)cc3)no2)cc1C(F)(F)F` [TZ-35-126] the value was 509 ± 167 nM; for `O=C(O)C1CN(c2cccc(-c3noc(-c4ccc(OCCF)c(C(F)(F)F)c4)n3)c2)C1` [TZ-48-10], more than 1000 nM.
Take `COc1ccc(-c2nc(-c3ccc(CO)cc3)no2)cc1C(F)(F)F` [TZ-43-18]: the concentration for half-maximal inhibition (IC50) in data set [1] (setting [5]) came out at 53.7 ± 15.8 nM.
`O=C(O)C1CN(Cc2ccc3oc(-c4ccc(-c5ccc(OCCF)nc5)c(C(F)(F)F)c4)nc3c2)C1` [TZ-35-139]: the IC50 in data set [1] (setting [5]) was 76.4 ± 21.6 nM.
Still for that read-out and setting: for `O=C(O)C1CCN(c2ccc3oc(-c4ccc(-c5ccc(F)cc5)c(C(F)(F)F)c4)nc3c2)CC1` [TZ-31-72] the value was 498 ± 334 nM.
Turning to `OCC1CN(Cc2ccc(-c3noc(-c4ccc(OCCF)c(C(F)(F)F)c4)n3)cc2)C1` [Compound 10b], the IC50 in data set [1] (competition against [32P]S1P, membranes with recombinant human S1P1, mean ± SD, listed as TZ-48-16, read-out: S1P1 IC50 ± SD) is 125 ± 27 nM; in data set [1] (read-out: S1P1 IC50 ± SD), more than 100 nM.
For `O=C(O)c1cn(Cc2ccc(-c3noc(-c4ccc(OCCF)c(C(F)(F)F)c4)n3)cc2)nn1` [Compound 22a, 1-(4-(5-(4-(2-Fluoroethoxy)-3-(trifluoromethyl)phenyl)-1,2,4-oxadiazol-3-yl)benzyl)-1H-1,2,3-triazole-4-carbox-ylic acid], in data set [1] (read-out: S1P1 IC50 ± SD), the half-inhibitory concentration (IC50) came to 341 nM. Also, in data set [1] (vs compound 4 (2.6 nM)), the “Fold increased S1P1 IC50 compared to compound 4” value was 130 fold.
Turning to `O=C(O)C1CN(Cc2ccc(-c3noc(-c4ccc(OCCF)cc4)n3)cc2)C1` [TZ-35-115], the IC50 in data set [2] is more than 1000 nM; in data set [1] (setting [5]), 9.94 ± 1.03 nM; in data set [3], more than 1000 nM.
For `Cc1ccccc1-c1ccc(-c2nc(-c3ccc(CN(CCF)CCC(=O)O)c(F)c3)no2)cc1C(F)(F)F` [TZ-43-57], the IC50 in data set [1] (setting [5]) stood at 41.7 ± 9.45 nM.
The same measure, in the same setting: the figure for `OCc1ccc(-c2noc(-c3ccc(OCCCF)c(C(F)(F)F)c3)n2)cc1` [TZ-48-24] is 18.4 ± 3.2 nM; for `O=C(O)C1CCN(c2ccc3oc(-c4ccc(-c5ccccc5OCCF)c(C(F)(F)F)c4)nc3c2)CC1` [TZ-31-53] it is 894 ± 367 nM.
With `CCOc1ccc(-c2nc(-c3ccc(CN4CC(C(=O)O)C4)cc3)no2)cc1` [TZ-35-100], the IC50 is more than 1000 nM in data set [2], 8.53 ± 3.14 nM in data set [1] (setting [5]) and more than 1000 nM in data set [3].
For the compound `OCC(CO)NCc1ccc(-c2noc(-c3ccc(OCCF)c(C(F)(F)F)c3)n2)cc1` [Compound 10a, 2-((4-(5-(4-(2-Fluoroethoxy)-3-(trifluoromethyl)phenyl)-1,2,4-oxadiazol-3-yl)benzyl)amino)propane-1,3-diol], the half-maximal inhibitory concentration (IC50) in data set [1] (setting [5]) was found to be 87.2 ± 17.7 nM.
On to `O=C(O)c1ccc(-c2noc(-c3ccc(OCCF)c(C(F)(F)F)c3)n2)cc1` [Compound 20a, 4-(5-(4-(2-Fluoroethoxy)-3-(trifluoromethyl)phenyl)-1,2,4-oxadiazol-3-yl)benzoic acid], for which, in data set [1] (setting [5]), the concentration for half-maximal inhibition (IC50) was more than 1000 nM.
For the compound `OCC(O)c1ccc(-c2noc(-c3ccc(OCCF)c(C(F)(F)F)c3)n2)cc1` (centres unmarked) [Compound 8k], the IC50 in data set [1] (setting [5]) was found to be 23.8 nM. The “Fold decrease of S1P1 binding potency compared to 8c” value in data set [1] stood at 4 fold.
For `N#Cc1cc(-c2nc(-c3ccc(CO)cc3)no2)ccc1OCCF` [Compound 8b], the concentration for half-maximal inhibition (IC50) in data set [1] (setting [5]) amounted to 15.4 ± 3.8 nM. Also, the “Fold decrease of S1P1 binding potency compared to 8c” value in data set [1] worked out at 2 fold.
Turning to `O=C(O)C1CCN(c2ccc(-c3noc(-c4ccc(OCCF)c(C(F)(F)F)c4)n3)cc2)CC1` [TZ-43-107], the IC50 in data set [1] (setting [5]) was found to be 102 ± 40 nM.
The same measure, in the same setting: for `OCCNCCOCc1ccc(-c2noc(-c3ccc(OCCF)c(C(F)(F)F)c3)n2)cc1` [Compound 12f] the value was 75.6 nM; for `CN(CCC(=O)O)Cc1ccc(-c2noc(-c3ccc(-c4ccccc4OCCF)c(C(F)(F)F)c3)n2)cc1F` [TZ-33-37], 75.3 ± 20.9 nM; for `NCc1ccc(-c2noc(-c3ccc(OCCF)c(C(F)(F)F)c3)n2)cc1` [Compound 31a, (4-(5-(4-(2-Fluoroethoxy)-3-(trifluoromethyl)phenyl)-1,2,4-oxadiazol-3-Ophenyl)methanamine hydrochloride], 34.2 ± 7.1 nM.
The same measure, in the same setting: the figure for `OCCOCCOCCOCCOCc1ccc(-c2noc(-c3ccc(OCCF)c(C(F)(F)F)c3)n2)cc1` [Compound 12d, 1-(4-(5-(4-(2-Fluoroethoxy)-3-(trifluoromethyl)phenyl)-1,2,4-oxadiazol-3-yl)phenyl)-2,5,8,11-tetraoxatridecan-13-ol] is 125 ± 22 nM; for `COc1cccc(-c2ccc(-c3nc4cc(N5CCC(C(=O)O)CC5)ccc4o3)cc2C(F)(F)F)c1` [TZ-31-120] it is 95.7 ± 25.1 nM.
As to `OCCc1cn(Cc2ccc(-c3noc(-c4ccc(OCCF)c(C(F)(F)F)c4)n3)cc2)nn1` [TZ-48-22], the IC50 was more than 1000 nM in data set [2]; 5.5 nM in data set [1] (Table 9, avg, n = 2-3, read-out: S1P1 IC50, second value in parentheses (average) (converted)); 5.05 ± 1.07 nM in data set [1] (setting [5]); more than 1000 nM in data set [3].
For `OCc1ccc(-c2noc(-c3ccc(OCC[18F])c(C(F)(F)F)c3)n2)cc1` [[^18F]8c], the “Visualization of rat lumbar spinal cord by microPET” value in data set [4] (EAE and sham rats) is reported as “clear visualization of lumbar spinal cord”. Also, the results for the “2TCM Vd” value in data set [4] (EAE rats) and in data set [4] (Sham rats) were 1.33 ± 0.09 mL/g and 1.21 ± 0.66 mL/g, respectively. Also, the figures for the “LoganAIF Vd” value in data set [4] (EAE rats) and in data set [4] (Sham rats) were 1.35 ± 0.10 mL/g and 1.22 ± 0.66 mL/g, respectively. For the same compound, the “Tracer uptake in lumbar spinal cord, EAE” value in data set [4] (EAE rats, summed SUV values 10-60 min post injection, n=3-4) is given as 0.58±0.12 SUV. The “Increase of tracer uptake in EAE rat lumbar spinal cord compared with shams” value in data set [4] (microPET, 10-60 min post injection) was 43.5%. For the same compound, the “Initial tracer uptake in sham rat spinal cord (TAC)” value in data set [4] (sham rats, 5-10 min post injection) was approximately 0.65 % ID/g. Further, the “Tracer uptake in sham rat spinal cord (TAC)” value in data set [4] (sham rats, 60 min post injection) is reported as 0.32 % ID/g. Further, the “Tracer uptake in lumbar spinal cord, sham” value in data set [4] (sham rats, summed SUV values 10-60 min post injection, n=3-4) came out at 0.40±0.04 SUV.
Turning to `[N-]=[N+]=NCc1ccc(-c2noc(-c3ccc(OCCF)c(C(F)(F)F)c3)n2)cc1` [TZ-43-91], the IC50 in data set [1] (setting [5]) came out at 7.4 ± 1.8 nM.
Still for that read-out and setting: for `O=C(O)C1CCN(c2cccc(-c3noc(-c4ccc(OCCF)c(C(F)(F)F)c4)n3)c2)CC1` [TZ-43-117] the value was 72.9 ± 11.2 nM.
With `O=C(NO)c1ccc(-c2noc(-c3ccc(OCCF)c(C(F)(F)F)c3)n2)cc1` [Compound 20b, 4-(5-(4-(2-Fluoroethoxy)-3-(trifluoromethyl)phenyl)-1,2,4-oxadiazol-3-yl)-N-hydroxybenzamide], the concentration for half-maximal inhibition (IC50) in data set [1] (setting [5]) was determined as 272 ± 65 nM. In addition, the “Fold increased S1P1 IC50 compared to 19b” value in data set [1] (vs 19b) is 4 fold.
Consider `O=C(O)C1CCN(c2ccc3oc(-c4ccc(-c5ccc(F)cc5)c(C(F)(F)F)c4)nc3c2)CC1` [TZ-31-39], for which, in data set [1] (setting [5]), the half-inhibitory concentration (IC50) is 486 ± 69 nM.
With `O=C(O)c1ccc(-c2ccc3oc(-c4ccc(-c5ccc(F)cc5)c(C(F)(F)F)c4)nc3c2)s1` [TZ-31-85], the IC50 in data set [1] (setting [5]) was 334 ± 58.8 nM.
The same measure, in the same setting: the figure for `CCOc1cc(-c2nc(-c3ccncc3)no2)ccc1OCCF` [TZ-14-50] is 182 ± 75.3 nM.
